Read-outs that look alike come from different tables or passages of the source.
Key:
Assay in all cases: Radiolabeled ATP kinase assay, panel of 371 kinases (Table S6)
Format in all cases: biochemical
[1] = target: T1, panel of 371 human kinases (Homo sapiens, UniProt O75582); conditions: MSK1/RPS6KA5; 0.1 μM; 10 μM ATP; read-out: % Enzyme Activity (relative to DMSO controls)
T1 construct: purchased Reaction Biology Corp
Excerpt: (§1) ; FIG. 38C). […]. Further targeted analyses, such as genetic knock-down or knock-out, may be warranted to parse the role of these additional kinases in our model of neurodegeneration.

[2] = target: T2, panel of 371 human kinases (Homo sapiens, UniProt P10398); conditions: ARAF; 0.1 μM; 10 μM ATP; read-out: % Enzyme Activity (relative to DMSO controls)
T2 construct: purchased Reaction Biology Corp
Excerpt: as §1

[3] = target: T3, panel of 371 human kinases (Homo sapiens, UniProt P16591); conditions: FER; 0.1 μM; 10 μM ATP; read-out: % Enzyme Activity (relative to DMSO controls)
T3 construct: purchased Reaction Biology Corp
Excerpt: as §1

[4] = target: T4, panel of 371 human kinases (Homo sapiens, UniProt P20794); conditions: MAK; 0.1 μM; 10 μM ATP; read-out: % Enzyme Activity (relative to DMSO controls)
T4 construct: purchased Reaction Biology Corp
Excerpt: as §1

[5] = target: T5, panel of 371 human kinases (Homo sapiens, UniProt P36507); conditions: MEK2; 0.1 μM; 10 μM ATP; read-out: % Enzyme Activity (relative to DMSO controls)
T5 construct: purchased Reaction Biology Corp
Excerpt: as §1

[6] = target: T6, panel of 371 human kinases (Homo sapiens, UniProt P68400); conditions: CK2a; 0.1 μM; 10 μM ATP; read-out: % Enzyme Activity (relative to DMSO controls)
T6 construct: purchased Reaction Biology Corp
Excerpt: as §1

[7] = target: T7, panel of 371 human kinases (Homo sapiens, UniProt P80192); conditions: MLK1/MAP3K9; 0.1 μM; 10 μM ATP; read-out: % Enzyme Activity (relative to DMSO controls)
T7 construct: purchased Reaction Biology Corp
Excerpt: as §1

[8] = target: T8, panel of 371 human kinases (Homo sapiens, UniProt Q00526); conditions: 0.1 μM, 10 μM ATP, read-out: % Enzyme Activity (relative to DMSO controls)
T8 construct: purchased Reaction Biology Corp
Excerpt: as §1

[9] = target: T9, panel of 371 human kinases (Homo sapiens, UniProt Q05513); conditions: PKCzeta; 0.1 μM; 10 μM ATP; read-out: % Enzyme Activity (relative to DMSO controls)
T9 construct: purchased Reaction Biology Corp
Excerpt: as §1

[10] = target: T10, panel of 371 human kinases (Homo sapiens, UniProt Q13177); conditions: PAK2; 0.1 μM; 10 μM ATP; read-out: % Enzyme Activity (relative to DMSO controls)
T10 construct: purchased Reaction Biology Corp
Excerpt: as §1

[11] = target: T11, panel of 371 human kinases (Homo sapiens, UniProt Q13237); conditions: PKG2/PRKG2; 0.1 μM; 10 μM ATP; read-out: % Enzyme Activity (relative to DMSO controls)
T11 construct: purchased Reaction Biology Corp
Excerpt: as §1

[12] = target: T12, panel of 371 human kinases (Homo sapiens, UniProt Q15746); conditions: MLCK/MYLK; 0.1 μM; 10 μM ATP; read-out: % Enzyme Activity (relative to DMSO controls)
T12 construct: purchased Reaction Biology Corp
Excerpt: as §1

[13] = target: T13, panel of 371 human kinases (Homo sapiens, UniProt Q16816); conditions: PHKg1; 0.1 μM; 10 μM ATP; read-out: % Enzyme Activity (relative to DMSO controls)
T13 construct: purchased Reaction Biology Corp
Excerpt: as §1

[14] = target: T14, panel of 371 human kinases (Homo sapiens, UniProt Q5TCY1); conditions: TTBK1; 0.1 μM; 10 μM ATP; read-out: % Enzyme Activity (relative to DMSO controls)
T14 construct: purchased Reaction Biology Corp
Excerpt: as §1

[15] = target: T15, panel of 371 human kinases (Homo sapiens, UniProt Q7L7X3); conditions: TAOK1; 0.1 μM; 10 μM ATP; read-out: % Enzyme Activity (relative to DMSO controls)
T15 construct: purchased Reaction Biology Corp
Excerpt: as §1

[16] = target: T16, panel of 371 human kinases (Homo sapiens, UniProt Q86UE8); conditions: TLK2; 0.1 μM; 10 μM ATP; read-out: % Enzyme Activity (relative to DMSO controls)
T16 construct: purchased Reaction Biology Corp
Excerpt: as §1

[17] = target: T17, panel of 371 human kinases (Homo sapiens, UniProt Q8IWQ3); conditions: BRSK2; 0.1 μM; 10 μM ATP; read-out: % Enzyme Activity (relative to DMSO controls)
T17 construct: purchased Reaction Biology Corp
Excerpt: as §1

[18] = target: T18, panel of 371 human kinases (Homo sapiens, UniProt Q8TD19); conditions: NEK9; 0.1 μM; 10 μM ATP; read-out: % Enzyme Activity (relative to DMSO controls)
T18 construct: purchased Reaction Biology Corp
Excerpt: as §1

[19] = target: T19, panel of 371 human kinases (Homo sapiens, UniProt Q96PN8); conditions: TSSK3/STK22C; 0.1 μM; 10 μM ATP; read-out: % Enzyme Activity (relative to DMSO controls)
T19 construct: purchased Reaction Biology Corp
Excerpt: as §1

[20] = target: T20, panel of 371 human kinases (Homo sapiens, UniProt Q99759); conditions: MEKK3; 0.1 μM; 10 μM ATP; read-out: % Enzyme Activity (relative to DMSO controls)
T20 construct: purchased Reaction Biology Corp
Excerpt: as §1

[21] = target: T21, panel of 371 human kinases (Homo sapiens, UniProt Q9P286); conditions: PAK5; 0.1 μM; 10 μM ATP; read-out: % Enzyme Activity (relative to DMSO controls)
T21 construct: purchased Reaction Biology Corp
Excerpt: as §1

[22] = target: T22, panel of 371 human kinases (Homo sapiens, UniProt Q9Y243); conditions: AKT3; 0.1 μM; 10 μM ATP; read-out: % Enzyme Activity (relative to DMSO controls)
T22 construct: purchased Reaction Biology Corp
Excerpt: as §1

[23] = target: T23, panel of 371 human kinases (Homo sapiens, UniProt Q9Y463); conditions: DYRK1B; 0.1 μM; 10 μM ATP; read-out: % Enzyme Activity (relative to DMSO controls)
T23 construct: purchased Reaction Biology Corp
Excerpt: as §1

[24] = target: T24, panel of 371 human kinases (Homo sapiens, UniProt Q9Y6M4); conditions: CK1g3; 0.1 μM; 10 μM ATP; read-out: % Enzyme Activity (relative to DMSO controls)
T24 construct: purchased Reaction Biology Corp
Excerpt: as §1

T8 sequence (Q00526 whole entry): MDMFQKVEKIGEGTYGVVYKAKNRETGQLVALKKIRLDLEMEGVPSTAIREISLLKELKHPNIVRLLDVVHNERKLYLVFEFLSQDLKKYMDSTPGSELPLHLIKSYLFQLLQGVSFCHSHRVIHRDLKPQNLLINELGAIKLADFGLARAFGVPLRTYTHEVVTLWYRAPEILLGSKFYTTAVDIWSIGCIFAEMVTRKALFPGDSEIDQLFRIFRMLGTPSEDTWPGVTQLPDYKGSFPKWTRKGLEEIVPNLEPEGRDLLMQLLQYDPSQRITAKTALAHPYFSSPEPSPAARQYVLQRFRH
T2 sequence (P10398 whole entry): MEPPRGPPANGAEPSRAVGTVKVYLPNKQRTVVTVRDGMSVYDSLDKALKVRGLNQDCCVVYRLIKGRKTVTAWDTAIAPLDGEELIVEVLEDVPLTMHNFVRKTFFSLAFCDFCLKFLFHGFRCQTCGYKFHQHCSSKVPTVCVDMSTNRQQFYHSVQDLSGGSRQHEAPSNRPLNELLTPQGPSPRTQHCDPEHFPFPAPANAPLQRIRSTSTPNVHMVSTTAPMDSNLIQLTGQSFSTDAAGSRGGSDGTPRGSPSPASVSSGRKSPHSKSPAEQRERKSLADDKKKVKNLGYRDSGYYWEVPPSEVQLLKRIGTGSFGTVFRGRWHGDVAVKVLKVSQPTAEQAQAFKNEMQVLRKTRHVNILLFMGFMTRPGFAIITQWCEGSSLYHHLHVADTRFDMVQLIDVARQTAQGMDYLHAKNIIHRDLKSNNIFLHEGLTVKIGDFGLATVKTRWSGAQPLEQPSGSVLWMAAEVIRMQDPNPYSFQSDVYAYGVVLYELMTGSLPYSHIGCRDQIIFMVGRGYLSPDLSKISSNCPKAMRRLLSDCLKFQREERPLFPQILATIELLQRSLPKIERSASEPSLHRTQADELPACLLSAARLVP
T15 sequence (Q7L7X3 whole entry): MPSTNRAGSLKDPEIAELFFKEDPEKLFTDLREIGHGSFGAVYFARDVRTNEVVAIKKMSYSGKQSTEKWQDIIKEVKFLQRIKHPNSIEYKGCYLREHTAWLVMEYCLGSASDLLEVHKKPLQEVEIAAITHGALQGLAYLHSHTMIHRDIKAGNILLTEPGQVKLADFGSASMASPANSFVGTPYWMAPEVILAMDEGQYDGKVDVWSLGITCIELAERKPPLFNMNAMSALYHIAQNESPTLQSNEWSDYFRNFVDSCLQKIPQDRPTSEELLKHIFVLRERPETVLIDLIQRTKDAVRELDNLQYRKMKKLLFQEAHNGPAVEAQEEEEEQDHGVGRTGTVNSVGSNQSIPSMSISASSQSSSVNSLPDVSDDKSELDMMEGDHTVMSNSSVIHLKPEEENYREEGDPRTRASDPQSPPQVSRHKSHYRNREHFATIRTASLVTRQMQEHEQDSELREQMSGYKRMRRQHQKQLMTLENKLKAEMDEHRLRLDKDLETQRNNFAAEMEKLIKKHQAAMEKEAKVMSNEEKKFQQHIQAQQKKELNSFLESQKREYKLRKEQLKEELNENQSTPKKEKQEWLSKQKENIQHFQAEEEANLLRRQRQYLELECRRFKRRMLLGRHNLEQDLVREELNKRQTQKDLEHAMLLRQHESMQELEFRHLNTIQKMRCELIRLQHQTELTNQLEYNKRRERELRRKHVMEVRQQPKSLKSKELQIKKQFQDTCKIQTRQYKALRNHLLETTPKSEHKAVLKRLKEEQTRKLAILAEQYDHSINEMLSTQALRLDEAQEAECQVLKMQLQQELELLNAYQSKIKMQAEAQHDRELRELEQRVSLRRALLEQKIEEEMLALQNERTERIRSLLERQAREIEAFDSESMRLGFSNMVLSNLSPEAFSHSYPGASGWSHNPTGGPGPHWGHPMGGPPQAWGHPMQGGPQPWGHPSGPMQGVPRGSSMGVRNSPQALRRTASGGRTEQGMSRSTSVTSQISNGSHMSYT
T17 sequence (Q8IWQ3 whole entry): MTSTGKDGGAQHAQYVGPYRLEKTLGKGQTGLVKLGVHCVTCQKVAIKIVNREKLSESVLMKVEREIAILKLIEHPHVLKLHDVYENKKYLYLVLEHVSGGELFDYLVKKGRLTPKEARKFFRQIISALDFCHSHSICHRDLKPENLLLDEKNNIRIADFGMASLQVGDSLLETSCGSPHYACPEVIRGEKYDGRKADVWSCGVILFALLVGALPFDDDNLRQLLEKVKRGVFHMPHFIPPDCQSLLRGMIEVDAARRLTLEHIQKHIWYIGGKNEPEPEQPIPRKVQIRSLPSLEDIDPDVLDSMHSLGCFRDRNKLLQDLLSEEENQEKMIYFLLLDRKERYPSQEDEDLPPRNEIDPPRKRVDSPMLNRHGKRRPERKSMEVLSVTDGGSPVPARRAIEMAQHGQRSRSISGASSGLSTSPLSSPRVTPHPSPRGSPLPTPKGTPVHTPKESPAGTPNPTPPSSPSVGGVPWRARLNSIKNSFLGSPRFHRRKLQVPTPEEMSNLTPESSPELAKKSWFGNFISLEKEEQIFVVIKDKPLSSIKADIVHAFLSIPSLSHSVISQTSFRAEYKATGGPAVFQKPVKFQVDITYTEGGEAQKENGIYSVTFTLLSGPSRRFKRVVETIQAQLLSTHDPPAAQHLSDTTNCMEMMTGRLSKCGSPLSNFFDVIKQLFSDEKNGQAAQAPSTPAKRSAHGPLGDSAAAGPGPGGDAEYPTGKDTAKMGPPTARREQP
T11 sequence (Q13237 whole entry): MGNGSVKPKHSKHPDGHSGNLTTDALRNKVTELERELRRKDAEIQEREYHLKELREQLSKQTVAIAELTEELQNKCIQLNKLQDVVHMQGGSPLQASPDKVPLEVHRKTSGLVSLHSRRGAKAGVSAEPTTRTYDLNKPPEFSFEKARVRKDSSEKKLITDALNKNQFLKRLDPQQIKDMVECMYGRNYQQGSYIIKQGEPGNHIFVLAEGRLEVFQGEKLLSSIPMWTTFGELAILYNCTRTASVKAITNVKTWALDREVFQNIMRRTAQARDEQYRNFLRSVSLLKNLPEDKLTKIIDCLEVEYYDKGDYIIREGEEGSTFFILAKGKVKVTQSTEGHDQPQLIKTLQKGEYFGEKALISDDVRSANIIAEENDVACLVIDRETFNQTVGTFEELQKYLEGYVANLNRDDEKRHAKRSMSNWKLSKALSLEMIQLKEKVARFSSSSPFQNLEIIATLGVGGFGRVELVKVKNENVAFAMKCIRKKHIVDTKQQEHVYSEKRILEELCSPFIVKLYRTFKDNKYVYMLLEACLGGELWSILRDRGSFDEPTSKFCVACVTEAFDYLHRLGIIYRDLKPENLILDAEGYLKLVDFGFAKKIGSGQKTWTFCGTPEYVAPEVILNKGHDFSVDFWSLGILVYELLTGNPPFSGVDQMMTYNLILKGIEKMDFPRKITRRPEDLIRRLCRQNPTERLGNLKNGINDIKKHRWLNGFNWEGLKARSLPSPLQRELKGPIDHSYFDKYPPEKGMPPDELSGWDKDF
T23 sequence (Q9Y463 whole entry): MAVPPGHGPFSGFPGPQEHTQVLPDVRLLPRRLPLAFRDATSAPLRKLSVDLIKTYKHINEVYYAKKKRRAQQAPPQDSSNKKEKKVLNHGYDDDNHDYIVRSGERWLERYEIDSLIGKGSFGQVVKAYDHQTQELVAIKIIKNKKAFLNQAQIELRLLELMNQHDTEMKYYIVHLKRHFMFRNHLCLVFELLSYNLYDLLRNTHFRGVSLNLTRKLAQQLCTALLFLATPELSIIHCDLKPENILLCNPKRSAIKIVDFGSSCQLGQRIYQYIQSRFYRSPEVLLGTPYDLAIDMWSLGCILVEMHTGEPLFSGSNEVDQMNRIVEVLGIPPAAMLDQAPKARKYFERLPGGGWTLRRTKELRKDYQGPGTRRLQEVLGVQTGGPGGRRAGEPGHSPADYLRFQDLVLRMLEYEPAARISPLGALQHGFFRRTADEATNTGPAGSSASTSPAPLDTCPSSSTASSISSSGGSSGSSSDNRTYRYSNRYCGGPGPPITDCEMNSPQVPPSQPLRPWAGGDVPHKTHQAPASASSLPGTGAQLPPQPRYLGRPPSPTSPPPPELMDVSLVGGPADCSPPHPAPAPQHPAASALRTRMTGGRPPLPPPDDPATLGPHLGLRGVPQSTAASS
T6 sequence (P68400 whole entry): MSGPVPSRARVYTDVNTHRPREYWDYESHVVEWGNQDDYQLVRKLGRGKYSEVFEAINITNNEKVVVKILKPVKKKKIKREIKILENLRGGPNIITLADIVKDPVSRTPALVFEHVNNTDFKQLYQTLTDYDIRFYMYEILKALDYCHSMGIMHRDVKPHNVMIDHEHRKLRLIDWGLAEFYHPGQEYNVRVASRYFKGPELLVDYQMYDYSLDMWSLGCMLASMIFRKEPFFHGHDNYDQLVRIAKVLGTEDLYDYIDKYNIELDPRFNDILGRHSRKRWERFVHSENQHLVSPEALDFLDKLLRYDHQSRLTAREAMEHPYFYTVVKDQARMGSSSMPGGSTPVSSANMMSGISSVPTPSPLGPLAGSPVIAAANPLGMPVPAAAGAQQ
T19 sequence (Q96PN8 whole entry): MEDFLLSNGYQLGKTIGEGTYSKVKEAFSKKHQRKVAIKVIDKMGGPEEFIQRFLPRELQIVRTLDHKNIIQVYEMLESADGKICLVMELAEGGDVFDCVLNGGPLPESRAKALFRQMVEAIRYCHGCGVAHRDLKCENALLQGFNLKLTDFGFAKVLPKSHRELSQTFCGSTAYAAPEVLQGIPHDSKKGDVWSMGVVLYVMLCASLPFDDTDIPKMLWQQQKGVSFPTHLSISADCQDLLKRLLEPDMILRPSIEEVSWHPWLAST

For CN1CCN(Cc2ccc(-c3cnc4[nH]cc(-c5ccc6[nH]ccc6c5)c4c3)cc2)CC1 [Compound 1, 3-(1H-Indol-5-yl)-5-(4-((4-methylpiperazin-1-yl)methyl)phenyl)-1H-pyrrolo[2,3-b]pyridine, reference compound], the remaining activity at 0.1 µM [1] was 101%, the remaining activity at 0.1 µM [2] was 108% and the remaining activity at 0.1 µM [3] was 94.8%. The remaining activity at 0.1 µM [4] was 101%, the remaining activity at 0.1 µM [5] was 86.7% and the remaining activity at 0.1 µM [6] was 100%. It also gave a remaining activity at 0.1 µM [7] of 48.2%, a remaining activity at 0.1 µM ([8]; CDK3/cyclin E2) of 92.6% and a remaining activity at 0.1 µM ([8]; CDK3/cyclin E) of 92.9%. For the same molecule, the remaining activity at 0.1 µM [9] was 93.6%, the remaining activity at 0.1 µM [10] was 97.1% and the remaining activity at 0.1 µM [11] was 93.8%. For the same molecule, the remaining activity at 0.1 µM [12] was 93.4%, the remaining activity at 0.1 µM [13] was 37.6% and the remaining activity at 0.1 µM [14] was 111%. The remaining activity at 0.1 µM [15] was 78.3%, the remaining activity at 0.1 µM [16] was 93% and the remaining activity at 0.1 µM [17] was 98%. For the same molecule, the remaining activity at 0.1 µM [18] was 101%, the remaining activity at 0.1 µM [19] was 146% and the remaining activity at 0.1 µM [20] was 91.6%. It also gave a remaining activity at 0.1 µM [21] of 113%, a remaining activity at 0.1 µM [22] of 98.4% and a remaining activity at 0.1 µM [23] of 43.2%. The remaining activity at 0.1 µM [24] was 92.2%.
Molecule OCCN1CCN(Cc2ccc(-c3cnc4[nH]cc(-c5cccc(Cl)c5)c4c3)cc2)CC1 [Compound 12k, 2-(4-(4-(3-(3-Chlorophenyl)-1H-pyrrolo[2,3-b]pyridin-5-yl)benzyl)piperazin-1-yl)ethan-1-ol] has a remaining activity at 0.1 µM [1] of 98.4%, a remaining activity at 0.1 µM [2] of 96.6% and a remaining activity at 0.1 µM [3] of 103%. It also gave a remaining activity at 0.1 µM [4] of 87.5%, a remaining activity at 0.1 µM [5] of 93.1% and a remaining activity at 0.1 µM [6] of 110%. The remaining activity at 0.1 µM [7] was 73.7%, the remaining activity at 0.1 µM ([8]; CDK3/cyclin E2) was 90.2% and the remaining activity at 0.1 µM ([8]; CDK3/cyclin E) was 97%. The remaining activity at 0.1 µM [9] was 97.7%, the remaining activity at 0.1 µM [10] was 85% and the remaining activity at 0.1 µM [11] was 88.7%. It also gave a remaining activity at 0.1 µM [12] of 99.1%, a remaining activity at 0.1 µM [13] of 74.5% and a remaining activity at 0.1 µM [14] of 106%. It also gave a remaining activity at 0.1 µM [15] of 59.8%, a remaining activity at 0.1 µM [16] of 95.2% and a remaining activity at 0.1 µM [17] of 93.5%. For the same molecule, the remaining activity at 0.1 µM [18] was 95.1%, the remaining activity at 0.1 µM [19] was 129% and the remaining activity at 0.1 µM [20] was 94.6%. For the same molecule, the remaining activity at 0.1 µM [21] was 99%, the remaining activity at 0.1 µM [22] was 97.2% and the remaining activity at 0.1 µM [23] was 38.3%. The remaining activity at 0.1 µM [24] was 92.4%.

Source: patent publication US12227500B2, “Substituted pyrrolo[2,3-b]pyridines for suppressing toxic endoplasmic reticulum stress” (THE TRUSTEES OF COLUMBIA UNIVERSITY IN THE CITY OF NEW YORK, priority 2018, dated 2025)
